Earlier results on three molecules are cited in PMC10726920 (Cancer Medicine, 2023).

The structures appear in SMILES notation.

In one series the test system is r/r ALL. The arrangement: method as in PMID 25724525. The note with it: combined with Hyper‐CVAD; cited from earlier work.
The next series deals with ALL at first relapse. Also noted: method as in PMID 29603593. The note with it: cited from earlier work.
A further series deals with lymphoid neoplasms. Also noted: method as in PMID 22080480. The note with it: cited from earlier work.
The test system of series [1] is r/r ALL in second relapse or greater. The conditions noted are these: added to intensive chemotherapy, cited from earlier work.
For a further series, the system named is r/r pediatric ALL. The conditions noted are these: with cyclophosphamide, etoposide, cited from earlier work.

Regarding `CO[C@H]1C[C@@H]2CC[C@@H](C)[C@@](O)(O2)C(=O)C(=O)N2CCCC[C@H]2C(=O)O[C@H]([C@H](C)C[C@@H]2CC[C@@H](OCCO)[C@H](OC)C2)CC(=O)[C@H](C)/C=C(\C)[C@@H](O)[C@@H](OC)C(=O)[C@H](C)C[C@H](C)/C=C/C=C/C=C/1C` [Everolimus], in the series with r/r ALL, the “CR or CRi in patients with only one prior line of therapy” value is “Six of 11”, the “dose‐limiting toxicity” value is on record as “G3 mucositis” and the overall response rate is given as 33%. Besides, the patients with meningitis with ALL at first relapse (dose level 3, Two out of twelve) is recorded as 17%. In addition, the “patients obtaining remission (CR2)” value with ALL at first relapse (with multi‐agent chemotherapy, Nineteen of 22) is 86%. In addition, the DLT result with ALL at first relapse (with multi‐agent chemotherapy) was “elevated liver enzymes in one patient”.
Regarding `COc1cccc2cc(-c3nc([C@H]4CC[C@H](C(=O)O)CC4)n4ncnc(N)c34)[nH]c12` [OSI‐027], in the series on lymphoid neoplasms, the “sensitivity of ALL across a series of lymphoid neoplasms” value is recorded as “most sensitive”.
Consider `CO[C@H]1C[C@@H]2CC[C@@H](C)[C@@](O)(O2)C(=O)C(=O)N2CCCC[C@H]2C(=O)O[C@H]([C@H](C)C[C@@H]2CC[C@@H](OC(=O)C(C)(CO)CO)[C@H](OC)C2)CC(=O)[C@H](C)/C=C(\C)[C@@H](O)[C@@H](OC)C(=O)[C@H](C)C[C@H](C)/C=C/C=C/C=C/1C` [temsirolimus], for which, in series [1] (Seven of 15), the patients achieving remission was 47%. In series [1] (three patients), the “patients with minimal residual disease <0.01%” value is 20%. Further, the overall response rate with r/r pediatric ALL (15 patients) is listed as 47%. Also, the “CR or CRi” value in the series with r/r pediatric ALL is 26%.
